Measured values taken from article PMC9606943, “Synthesis and Chemopreventive Potential of 5-FU/Genistein Hybrids on Colorectal Cancer Cells” (Pharmaceuticals, 2022).
Where two headings read alike, the source gives them in different places.

Columns and labels:
SW480 = assay: Sulforhodamine B cytotoxicity assay, SW480; assay type: cell-based, human; details: 48 h; for IC50: mean ± SE
Protocol: (§1) Two colon cancer cells (SW480 and SW620) and non-malignant cell lines (human keratinocytes, HaCaT; chinese hamster ovary, CHO-K1) were obtained from The European Collection of Authenticated Cell Cultures (ECACC, England). For biological evaluations, cells were cultured in Dulbecco’s Modified Eagle Medium, supplemented with 10% heat-inactivated (56 °C) horse serum, 1% penicillin/streptomycin and 1% non-essential amino acids (Gibco Invitrogen, Carlsbad, CA, USA). During the treatments, the serum was reduced to 3%, and the medium was supplemented with insulin ([…]) transferrin ([…]) and selenium (5 ng/mL) (ITS-defined medium; Gibco, Invitrogen, Carlsbad, USA). To avoid Mycoplasma spp. contamination, cell cultures were regularly tested by polymerase chain reaction.
(§2) Briefly, cells were seeded at 20,000 cells/well (for cytotoxicity assay) and 2500 cells/well (for the antiproliferative test) in 96-well tissue culture plates, incubating at 37 °C in a humidified atmosphere with 5% CO2. After the adaptation time (24 h), cells were treated with increasing concentrations of the hybrid molecules or DMSO (1%). At the end of each treatment, cells were fixed with trichloroacetic acid (50% v/v; MERCK) for one hour at 4 °C. Subsequently, cell proteins were stained with SRB (0.4% w/v; Sigma-Aldrich, United States) and washed with acetic acid (1%). After drying at room temperature, Tris-base (10 mM) was added to solubilize protein bound stain. Absorbance was read in a microplate reader (Mindray MR-96A) at 492 nm. All experiments were performed at least in duplicate.

SW620 = assay: Sulforhodamine B cytotoxicity assay, SW620; assay type: cell-based, human; details: 48 h; for IC50: mean ± SE
Protocol: as §1, §2

HaCaT = assay: Sulforhodamine B cytotoxicity assay, HaCaT; assay type: cell-based, human; details: 48 h, mean ± SE, non-malignant cells
Protocol: as §1, §2

CHO-K1 = assay: Sulforhodamine B cytotoxicity assay, CHO-K1; assay type: cell-based, chinese hamster; details: 48 h, mean ± SE, non-malignant cells
Protocol: as §1, §2

normal VERO cells = details: cited from earlier work
[1] = test system: human gastric cancer cell line (SGC-7901); design: method as in doi:10.1039/C6MD00268D; details: cited from earlier work

| Compound | IC50 (SW480) | IC50 (SW620) | IC50 (HaCaT) | IC50 (CHO-K1) | Selectivity Index (SI) CHO-K1/620 (SW620) | Selectivity Index (SI) HaCaT/SW620 (SW620) | Selectivity Index (SI) CHO-K1/SW480 (SW480) | Selectivity Index (SI) HaCaT/SW480 (SW480) | selectivity index SGC-7901 versus GES-1 ([1]; at the concentration of 10 µM) | also measured |
| --- | --- | --- | --- | --- | --- | --- | --- | --- | --- | --- |
| 5-fluoro-1-((1-(3-((5-hydroxy-3-(4-hydroxyphenyl)-4-oxo-4H-chromen-7-yl)oxy)butyl)-1H-1,2,3-triazol-4-yl)methyl)pyrimidine-2,4(1H,3H)-dione [4c] | > 100 µM | > 100 µM | > 100 µM | > 100 µM | – | – | – | – | – | – |
| 5-fluoro-1-((1-(3-((5-hydroxy-3-(4-hydroxyphenyl)-4-oxo-4H-chromen-7-yl)oxy)dodecyl)-1H-1,2,3-triazol-4-yl)methyl)pyrimidine-2,4(1H,3H)-dione | > 100 µM | 83.6 ± 8.05 µM | > 100 µM | > 100 µM | >1.20 | >1.20 | – | – | – | – |
| 5-fluoro-1-((1-(3-((5-hydroxy-3-(4-hydroxyphenyl)-4-oxo-4H-chromen-7-yl)oxy)hexyl)-1H-1,2,3-triazol-4-yl)methyl)pyrimidine-2,4(1H,3H)-dione [4e] | > 100 µM | > 100 µM | > 100 µM | > 100 µM | – | – | – | – | – | – |
| 5-fluoro-1-((1-(3-((5-hydroxy-3-(4-hydroxyphenyl)-4-oxo-4H-chromen-7-yl)oxy)octyl)-1H-1,2,3-triazol-4-yl)methyl)pyrimidine-2,4(1H,3H)-dione [4f] | 97.5 ± 5.04 µM | 47.4 ± 2.19 µM | 50 ± 7.17 µM | > 100 µM | >2.11 | 1.05 | >1.02 | 0.51 | – | – |
| 5-fluoro-1-((1-(3-((5-hydroxy-3-(4-hydroxyphenyl)-4-oxo-4H-chromen-7-yl)oxy)pentyl)-1H-1,2,3-triazol-4-yl)methyl)pyrimidine-2,4(1H,3H)-dione [4d] | > 100 µM | > 100 µM | > 100 µM | > 100 µM | – | – | – | – | – | – |
| O=c1[nH]c(=O)n(Cc2cn(CCCOc3cc(O)c4c(=O)c(-c5ccc(O)cc5)coc4c3)nn2)cc1F [4b, 5-fluoro-1-((1-(3-((5-hydroxy-3-(4-hydroxyphenyl)-4-oxo-4H-chromen-7-yl)oxy)propyl)-1H-1,2,3-triazol-4-yl)methyl)pyrimidine-2,4(1H,3H)-dione] | – | – | – | – | – | – | – | – | – | IC50 (SW480; Homo sapiens, SW480): > 100 µM; IC50 (SW620; Homo sapiens, SW-620): > 100 µM; IC50 (HaCaT; Homo sapiens, HaCaT): > 100 µM; IC50 (CHO-K1; Cricetulus griseus, CHO-K1): > 100 µM; melting point: 175 to 178 °C |
| O=c1[nH]cc(F)c(=O)[nH]1 [5-FU, 5-fluorouracil] | – | – | – | – | – | – | 0.99 | 0.68 | 0.74 | IC50 (normal VERO cells): 3.33 µM; selectivity index SGC-7901 versus GES-1 ([1]; at 50 µM): 0.88 |
| O=C(Cn1cc(F)c(=O)[nH]c1=O)OCC[n+]1ccc(/C=C/c2c[nH]c3ccccc23)cc1 [C1] | – | – | – | – | – | – | – | – | 1.16 | – |
| O=C(Cn1cc(F)c(=O)[nH]c1=O)NCC[n+]1ccc(/C=C/c2c[nH]c3ccccc23)cc1 [C2] | – | – | – | – | – | – | – | – | 1.08 | selectivity index SGC-7901 versus GES-1 ([1]; at 50 µM): 1.20 |
| O=c1c(-c2ccc(O)cc2)coc2cc(O)cc(O)c12 [Genistein] | – | – | – | – | 0.64 | 0.63 | 1.01 | 0.95 | – | IC50 (SW480; Homo sapiens, SW480): 48.1 ± 3.03 µM; IC50 (SW620; Homo sapiens, SW-620): 75.8 ± 5.83 µM; IC50 (HaCaT; Homo sapiens, HaCaT): 45.9 ± 1.97 µM; IC50 (CHO-K1; Cricetulus griseus, CHO-K1): 48.4 ± 4.13 µM |
